In data set [1] the test system is mice with glucose-induced hyperglycemia. The data set is described as follows: Hypoglycemic effect of orally administered compounds in mice with glucose-induced hyperglycemia. Format: in vivo, Kun Ming male mice. The conditions noted are these: glucose 2 g/10 ml/kg orally 15 min later, fasted mice. How it is done:
In the following biological experiments, the hypoglycemic activity of the above compounds was chiefly observed in hyperglycemic mice. Taking 3,3′,5′-trihydroxy-4′-methoxystilbene-3-O-β-D-glucoside (rhaponticin) as a positive control drug, the hypoglycemic activity of these compounds were preliminarily evaluated.
Kun Ming male mice (certification: Medical Animal No. D01-3023) with body weight of 21-33 g were used in the experiments. After fasting and feeding water for 16 hours, the compounds were administered to the mice. The candidate compounds were formulated with dimethyl sulfoxide (2.5 ml/kg), and administered to the mice intragastrically. After fifteen minutes, glucose (2 g/10 ml/kg) was administered orally. One hour later, one drop of blood was collected by cutting a segment of tail and the blood sugar level was monitored with a blood sugar monitor manufactured by Johnson Company, USA, by using a test paper containing glucose oxidase. For the mice of the control group, dimethyl sulfoxide ([…]) and glucose (2 g/10 ml/kg) were given intragastrically.

Setting [2] is: Table 3, 400 mg/kg intragastrically, DMSO control 7.80 ± 1.33.
Where [3] appears, read: Table 2, 400 mg/kg intragastrically, DMSO control 8.53 ± 0.76.
Where [4] appears, read: Table 1, 400 mg/kg intragastrically, DMSO control 9.50 ± 1.06.

As a reminder, the melting point is the temperature of the solid-liquid transition.

Consider `COc1cc(C=C(C(=O)NCc2ccco2)c2ccccc2)ccc1OC(C)=O` [Example 7, cis-2-phenyl-3-(3′-methoxy-4′-acetoxy-phenyl)-N-(methylenefuran)acrylamide], for which, in data set [1] (setting [2]), the “Blood sugar level one hour after administration M ± SD” value was determined as 6.95 ± 0.61 mmol/L.

For `COc1ccc(/C=C(/C(=O)O)c2ccccc2)cc1C(=O)O` [Example 5, cis-2-phenyl-3-(3′-carboxy-4′-methoxy-phenyl)acrylic acid], in data set [1] (setting [3]), the “Blood sugar level one hour after administration M ± SD” value is 8.50 ± 1.01 mmol/L.

With `COc1cc(/C=C(/C(=O)O)c2ccccc2)ccc1O` [Example 4, cis-2-phenyl-3-(3′-methoxy-4′-hydroxy-phenyl)acrylic acid], the “Blood sugar level one hour after administration M ± SD” value in data set [1] (setting [3]) came to 7.30 ± 2.21 mmol/L. As to `COc1ccc(/C=C(/C(=O)O)c2ccccc2)cc1OC(C)=O` [Example 2, cis-2-phenyl-3-(3′-acetoxy-4′-methoxy-phenyl)acrylic acid], the “Blood sugar level one hour after administration M ± SD” value in data set [1] (setting [4]) was 8.20 ± 0.99 mmol/L. For the compound `COc1cc(/C=C(/C(=O)NC2CCCCC2)c2ccccc2)ccc1OC(C)=O` [Example 6, cis-2-phenyl-3-(3-methoxy-4′-acetoxy-phenyl)-N-cyclohexyl acrylamide], the “Blood sugar level one hour after administration M ± SD” value in data set [1] (setting [3]) was found to be 5.46 ± 0.86 mmol/L. Consider `COc1cc(/C=C(/C(=O)O)c2ccccc2)ccc1OC(C)=O` [Example 3, cis-2-phenyl-3-(3′-methoxy-4′-acetoxy-phenyl)acrylic acid], for which the “Blood sugar level one hour after administration M ± SD” value in data set [1] (setting [4]) is 7.30 ± 0.68 mmol/L; in data set [1] (setting [3]), 7.85 ± 0.16 mmol/L.

Regarding `COC(=O)/C(=C/c1ccc(OC)c(OC)c1)c1ccccc1` [Example 9, cis-2-phenyl-3-(3′,4′-dimethoxy-phenyl)-methyl acrylate], in data set [1] (setting [2]), the “Blood sugar level one hour after administration M ± SD” value is 8.41 ± 0.88 mmol/L. Take `COc1ccc(/C=C/c2cc(O)cc(O[C@@H]3O[C@H](CO)[C@@H](O)[C@H](O)[C@H]3O)c2)cc1O` [rhaponticin, 3,3′,5′-trihydroxy-4′-methoxystilbene-3-O-β-D-glucoside, reference compound]: the “Blood sugar level one hour after administration M ± SD” value in data set [1] (setting [4]) is given as 9.14 ± 1.90 mmol/L; in data set [1] (Table 1, 800 mg/kg intragastrically, DMSO control 9.50 ± 1.06) it was 7.02 ± 1.01 mmol/L. Compound `COc1cc(C=C(C(=O)N[C@H]2CC[C@@H](C)CC2)c2ccccc2)ccc1OC(C)=O` [Example 8, cis-2-phenyl-3-(3′-methoxy-4′-acetoxy-phenyl)-N-(4-methylcyclohexyl)acrylamide] gave a melting point of 136 to 140 °C. The “Blood sugar level one hour after administration M ± SD” value in data set [1] (Table 3, 100 mg/kg intragastrically, DMSO control 7.80 ± 1.33) came out at 5.61 ± 1.67 mmol/L. As to `COc1cc(/C=C\c2ccccc2)ccc1O` [Example 1, cis-1-phenzyl-2-(3′-methoxy-4′-hydroxy-phenyl)ethene], the “Blood sugar level one hour after administration M ± SD” value in data set [1] (setting [4]) was found to be 7.62 ± 1.59 mmol/L.
